From paper PMC5603230 (Journal of medicinal chemistry, 2017)

How the values were obtained:
SiHa = test: Cell proliferation inhibition, SiHa in serine-replete or -deplete medium; assay type: cell-based, human; settings: ratio of IC50 in serine-replete to serine-deplete medium
HL-60 shCTRL = test: Cell proliferation inhibition, HL-60 shCTRL in serine-replete or -deplete medium; assay type: cell-based, human; settings: ratio of IC50 in serine-replete to serine-deplete medium
PHGDH [1] = target: T1, PHGDH (Homo sapiens, UniProt O43175); settings: coupled-enzyme assay
T1 sequence (O43175 1-533): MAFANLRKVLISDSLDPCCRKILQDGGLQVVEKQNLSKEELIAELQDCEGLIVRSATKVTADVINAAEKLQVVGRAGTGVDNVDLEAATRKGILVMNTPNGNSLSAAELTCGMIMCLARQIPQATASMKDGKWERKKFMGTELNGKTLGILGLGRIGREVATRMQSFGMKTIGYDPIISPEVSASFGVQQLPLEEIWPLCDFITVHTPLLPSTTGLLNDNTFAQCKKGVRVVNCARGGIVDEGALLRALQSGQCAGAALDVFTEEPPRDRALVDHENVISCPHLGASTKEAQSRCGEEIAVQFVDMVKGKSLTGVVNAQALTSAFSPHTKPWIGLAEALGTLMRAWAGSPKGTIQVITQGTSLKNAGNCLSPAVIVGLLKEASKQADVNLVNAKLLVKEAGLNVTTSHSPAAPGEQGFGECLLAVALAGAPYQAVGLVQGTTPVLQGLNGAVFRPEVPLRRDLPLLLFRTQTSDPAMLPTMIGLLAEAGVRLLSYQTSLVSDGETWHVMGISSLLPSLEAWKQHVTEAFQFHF

PHGDH [2] = target: T1, PHGDH; test: Ki measurement / competition assay by titrating 3-PG or NAD+; assay type: biochemical
PHGDH [3] = target: T1, PHGDH; test: Rapid dilution; assay type: biochemical; settings: 160 μM, 45 min at 37 °C, diluted 10-fold

## O=C(Nc1ccccc1[N+](=O)[O-])c1ccc(Cl)cc1 [compound 12]
SiHa
  SiHa IC50+Ser/IC50−Ser: >1.7
HL-60 shCTRL
  HL-60 shCTRL IC50+Ser/IC50−Ser: >1.2

## O=C(C(=S)N1CCOCC1)c1ccccc1Cl [compound 23, 1-(2-Chlorophenyl)-2-morpholino-2-thioxoethanone]
PHGDH [1]
  PHGDH inhibition (IC50, μM): no inhibition

## O=C(C(=S)N1CCOCC1)c1ccccc1 [compound 19, 1-Phenyl-2-morpholino-2-thioxoethanone]
PHGDH [2]
  mode of action with respect to both substrates (3-PG and NAD+): noncompetitive
PHGDH [3]
  recovery of enzymatic activity after dilution: enzymatic activity is not recovered after dilution
HL-60 shCTRL
  HL-60 shCTRL IC50+Ser/IC50−Ser: >5.5

## O=C(C(=S)N1CCOCC1)c1cccc(Cl)c1 [compound 24, 1-(3-Chlorophenyl)-2-morpholino-2-thioxoethanone]
PHGDH [1]
  PHGDH inhibition (IC50, μM): no inhibition
